Source: the NIST ThermoML archive (doi:10.1021/acs.jced.7b00106)
Numbers after ± are expanded uncertainties.

Settings: Hot wire method

`FC(F)(F)/C=C/Cl` [(E)-1-chloro-3,3,3-trifluoroprop-1-ene] gave a thermal conductivity (343.36 K, 65455 kPa, Liquid) of 0.09919 ± 0.0076 W/m/K, a thermal conductivity (343.39 K, 244 kPa, Gas) of 0.01403 ± 0.0005 W/m/K and a thermal conductivity (343.41 K, 34281 kPa, Liquid) of 0.08798 ± 0.0079 W/m/K. The thermal conductivity (343.43 K, 53923 kPa, Liquid) was 0.09546 ± 0.008 W/m/K, the thermal conductivity (343.44 K, 254 kPa, Gas) was 0.0143 ± 0.0005 W/m/K and the thermal conductivity (343.54 K, 43743 kPa, Liquid) was 0.09133 ± 0.0079 W/m/K. For the same compound, the thermal conductivity (343.62 K, 34264 kPa, Liquid) was 0.08757 ± 0.0066 W/m/K, the thermal conductivity (343.63 K, 177 kPa, Gas) was 0.01444 ± 0.00051 W/m/K and the thermal conductivity (343.68 K, 26051 kPa, Liquid) was 0.08479 ± 0.0055 W/m/K. It also gave a thermal conductivity (343.71 K, 368 kPa, Gas) of 0.01422 ± 0.0005 W/m/K, a thermal conductivity (343.72 K, 113 kPa, Gas) of 0.01433 ± 0.00051 W/m/K and a thermal conductivity (343.77 K, 19020 kPa, Liquid) of 0.08131 ± 0.0047 W/m/K. The thermal conductivity (343.82 K, 116 kPa, Gas) was 0.01436 ± 0.00051 W/m/K, the thermal conductivity (343.85 K, 65463 kPa, Liquid) was 0.09884 ± 0.0065 W/m/K and the thermal conductivity (343.89 K, 252 kPa, Gas) was 0.01433 ± 0.00051 W/m/K. It also gave a thermal conductivity (343.9 K, 26047 kPa, Liquid) of 0.08436 ± 0.0032 W/m/K, a thermal conductivity (343.93 K, 12786 kPa, Liquid) of 0.07777 ± 0.0024 W/m/K and a thermal conductivity (343.93 K, 53925 kPa, Liquid) of 0.09489 ± 0.0078 W/m/K. The thermal conductivity (343.97 K, 19023 kPa, Liquid) was 0.08066 ± 0.0046 W/m/K, the thermal conductivity (344.06 K, 43740 kPa, Liquid) was 0.09102 ± 0.0049 W/m/K and the thermal conductivity (344.06 K, 65472 kPa, Liquid) was 0.09859 ± 0.0066 W/m/K. It also gave a thermal conductivity (344.08 K, 176 kPa, Gas) of 0.01441 ± 0.00051 W/m/K, a thermal conductivity (344.15 K, 365 kPa, Gas) of 0.0142 ± 0.0005 W/m/K and a thermal conductivity (344.15 K, 53918 kPa, Liquid) of 0.09481 ± 0.0079 W/m/K. It also gave a thermal conductivity (344.17 K, 12778 kPa, Liquid) of 0.07722 ± 0.0032 W/m/K, a thermal conductivity (344.2 K, 113 kPa, Gas) of 0.01446 ± 0.00051 W/m/K and a thermal conductivity (344.28 K, 117 kPa, Gas) of 0.01435 ± 0.00051 W/m/K. For the same compound, the thermal conductivity (344.3 K, 43734 kPa, Liquid) was 0.09086 ± 0.005 W/m/K, the thermal conductivity (344.35 K, 250 kPa, Gas) was 0.01435 ± 0.00051 W/m/K and the thermal conductivity (344.48 K, 465 kPa, Gas) was 0.01396 ± 0.00049 W/m/K. The thermal conductivity (344.56 K, 175 kPa, Gas) was 0.01444 ± 0.00051 W/m/K, the thermal conductivity (344.7 K, 114 kPa, Gas) was 0.01426 ± 0.0005 W/m/K and the thermal conductivity (344.79 K, 119 kPa, Gas) was 0.01436 ± 0.00051 W/m/K. For the same compound, the thermal conductivity (344.84 K, 248 kPa, Gas) was 0.01433 ± 0.00051 W/m/K, the thermal conductivity (344.84 K, 463 kPa, Gas) was 0.01404 ± 0.00058 W/m/K and the thermal conductivity (344.95 K, 465 kPa, Gas) was 0.01434 ± 0.00054 W/m/K. For the same compound, the thermal conductivity (345.08 K, 174 kPa, Gas) was 0.01445 ± 0.00051 W/m/K, the thermal conductivity (345.19 K, 360 kPa, Gas) was 0.01419 ± 0.0005 W/m/K and the thermal conductivity (345.23 K, 114 kPa, Gas) was 0.01452 ± 0.00051 W/m/K. The thermal conductivity (345.31 K, 120 kPa, Gas) was 0.01441 ± 0.00051 W/m/K, the thermal conductivity (345.34 K, 463 kPa, Gas) was 0.01431 ± 0.00052 W/m/K and the thermal conductivity (345.37 K, 246 kPa, Gas) was 0.01436 ± 0.00051 W/m/K. For the same compound, the thermal conductivity (345.44 K, 465 kPa, Gas) was 0.0143 ± 0.0005 W/m/K, the thermal conductivity (345.7 K, 358 kPa, Gas) was 0.01431 ± 0.0005 W/m/K and the thermal conductivity (345.9 K, 245 kPa, Gas) was 0.01451 ± 0.00051 W/m/K. It also gave a thermal conductivity (361.58 K, 586 kPa, Fluid (supercritical or subcritical phases)) of 0.01605 ± 0.0014 W/m/K, a thermal conductivity (361.67 K, 483 kPa, Fluid (supercritical or subcritical phases)) of 0.01602 ± 0.0013 W/m/K and a thermal conductivity (361.68 K, 45282 kPa, Liquid) of 0.08799 ± 0.0024 W/m/K. The thermal conductivity (361.69 K, 33938 kPa, Liquid) was 0.0832 ± 0.0012 W/m/K, the thermal conductivity (361.69 K, 33954 kPa, Liquid) was 0.08326 ± 0.0029 W/m/K and the thermal conductivity (361.7 K, 45281 kPa, Liquid) was 0.08796 ± 0.0018 W/m/K. The thermal conductivity (361.73 K, 23489 kPa, Liquid) was 0.07844 ± 0.0025 W/m/K, the thermal conductivity (361.74 K, 23503 kPa, Liquid) was 0.07846 ± 0.0029 W/m/K and the thermal conductivity (361.77 K, 371 kPa, Fluid (supercritical or subcritical phases)) was 0.01613 ± 0.0014 W/m/K. The thermal conductivity (361.79 K, 26408 kPa, Liquid) was 0.07982 ± 0.0022 W/m/K, the thermal conductivity (361.8 K, 26407 kPa, Liquid) was 0.07977 ± 0.0018 W/m/K and the thermal conductivity (361.83 K, 39898 kPa, Liquid) was 0.0857 ± 0.0085 W/m/K. The thermal conductivity (361.83 K, 39907 kPa, Liquid) was 0.0857 ± 0.0086 W/m/K, the thermal conductivity (361.88 K, 33923 kPa, Liquid) was 0.08317 ± 0.0014 W/m/K and the thermal conductivity (361.89 K, 33938 kPa, Liquid) was 0.0832 ± 0.0017 W/m/K. For the same compound, the thermal conductivity (361.92 K, 588 kPa, Fluid (supercritical or subcritical phases)) was 0.01611 ± 0.0016 W/m/K, the thermal conductivity (361.93 K, 45278 kPa, Liquid) was 0.08791 ± 0.0016 W/m/K and the thermal conductivity (361.94 K, 45270 kPa, Liquid) was 0.08806 ± 0.0016 W/m/K. It also gave a thermal conductivity (361.98 K, 23477 kPa, Liquid) of 0.07836 ± 0.00088 W/m/K, a thermal conductivity (361.98 K, 23492 kPa, Liquid) of 0.07838 ± 0.0018 W/m/K and a thermal conductivity (362.01 K, 484 kPa, Fluid (supercritical or subcritical phases)) of 0.01607 ± 0.002 W/m/K. The thermal conductivity (362.05 K, 26376 kPa, Liquid) was 0.07972 ± 0.0009 W/m/K, the thermal conductivity (362.05 K, 26398 kPa, Liquid) was 0.07971 ± 0.0012 W/m/K and the thermal conductivity (362.05 K, 39862 kPa, Liquid) was 0.08563 ± 0.0016 W/m/K. It also gave a thermal conductivity (362.08 K, 39906 kPa, Liquid) of 0.08546 ± 0.0021 W/m/K, a thermal conductivity (362.14 K, 33914 kPa, Liquid) of 0.08314 ± 0.00095 W/m/K and a thermal conductivity (362.14 K, 33942 kPa, Liquid) of 0.08313 ± 0.0019 W/m/K.
